This is an account of results in article PMC6445123 (Scientific Reports, 2019).

Data set [1] has as its target T1, recombinant active Casp6 (Casp6-WT) (Homo sapiens, UniProt P55212, INS179NQTEKLDTNITEVD).
T1 construct: generating mainly large subunit with a linker (LS-L), small subunit (SS), and a minor amount of large subunit (LS); His (C); made in house; host or cells: E. coli BL21(DE3)pLysS
T1 sequence (P55212 24-193 limits assumed): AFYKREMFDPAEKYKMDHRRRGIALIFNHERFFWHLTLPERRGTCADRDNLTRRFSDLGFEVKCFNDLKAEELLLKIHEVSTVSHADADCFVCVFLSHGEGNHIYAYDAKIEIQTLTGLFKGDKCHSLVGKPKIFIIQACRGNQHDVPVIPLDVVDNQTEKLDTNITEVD
T1 sequence (P55212 194-293 limits assumed): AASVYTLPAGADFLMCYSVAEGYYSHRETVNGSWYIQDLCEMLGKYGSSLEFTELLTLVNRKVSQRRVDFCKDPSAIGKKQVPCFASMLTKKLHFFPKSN
The data set can be described thus: Fluorescence-based Ac-VEID-AFC cleavage assay (Casp6 activity, IC50 determination). Particulars: 10 µM Ac-VEID-AFC; for % Inhibition with 100 µM compound (fluorescence assay): 20 nM Casp6, relative to 1% DMSO control; for IC50: fluorescence assay, 20 nM Casp6 active sites, read-out: IC50. The data set is classed as biochemical. The protocol: (§1) To assess the potency of in silico hits, a fluorescence-based Ac-VEID-AFC cleavage assay was used to measure recombinant active Casp6 reaction rate in the absence or presence of 100 µM concentration of compounds. A 30% inhibition cut off was arbitrarily chosen for further investigation of putative inhibitors. […] AFC signal interference by compound intrinsic fluorescence was ruled out (Fig. S4). Casp6 inhibition was confirmed for seven compounds (C7, C13, C14, S2, S10, S11 and S13) using a colorimetric Ac-VEID-pNA cleavage assay (Table 2, Fig. S3).
Casp6 active sites were quantified using zVAD-FMK (N-benzyloxycarbonyl-Val-Ala-Asp-(O-methyl)-fluoromethylketone, MP Biomedicals, Santa Ana, CA, USA)[51],[64]. Casp6 activity was measured in Stennicke’s buffer (SB: 20 mM piperazine-N,N′-bis-(2-ethanesulfonic acid) pH 7.2, 100 mM NaCl, 10 mM DTT, 1 mM EDTA, 0.1% 3-[(3-cholamidopropyl)-dimethylammonio]-2-hydroxy-1-propanesulfonic acid, 10% sucrose)[65] using 40 µM Ac-VEID-AFC (Ac-Val-Glu-Ile-Asp-7-Amino-4-trifluoromethylcoumarin, Enzo Life Sciences, Farmingdale, NY, USA)[64] and 10-250 nM active site titrated Casp6. Reactions were initiated by Ac-VEID-AFC addition and followed for 20 min at 37 °C in a black clear bottom 96-well microplate (Costar, Corning, NY, USA) in Synergy H4 Hybrid instrument (BioTek, Winooski, VT, USA) with excitation/emission at 380/505 nm. Released AFC was calculated from AFC standard curve (0-25 µM). Casp6 VEIDase activity (released pmol AFC/min) was calculated from the initial linear reaction part. Ac-VEID-AFC hydrolysis initial velocities were measured with 10 nM active-site titrated Casp6 and […] Ac-VEID-AFC. Initial velocities v versus substrate concentration [S] were fit to a rectangular hyperbola using Michaelis-Menten equation in GraphPad Prism 5 (GraphPad Software, La Jolla, CA, USA).
(§2) In fluorescence-based Casp6 activity assay, 10 µM Ac-VEID-AFC was added to 20 nM Casp6 in SB with 100 μM compound and 1% dimethyl sulfoxide (DMSO), and reaction rate was measured for 20 min at 37 °C as above. Compound potency was calculated by normalising Ac-VEID-AFC cleavage rate to 1% DMSO control. In colorimetric Casp6 activity assay, 200 µM Ac-VEID-pNA (N-acetyl-Val-Glu-Ile-Asp-p-nitroanilide, Enzo Life Sciences) was added to 200 nM Casp6 in SB with 100 μM compound, and Ac-VEID-pNA cleavage rate was measured at 37 °C for 30 min in clear 96-well plate (Sartstedt, Nümbrecht, Germany) using Synergy H4 plate reader at 405 nm. Absorbance was converted to the released pNA amount based on a standard curve of 0–250 µM pNA. Cleavage rates were calculated from the linear assay phase and were normalised to 1% DMSO control. In Casp6-C163A cleavage assay, 0.5 ng/µl Casp6-WT was preincubated with 100 µM inhibitor, 5 µM Q-VD-OPh or 1% DMSO in SB (30 min, RT), followed by transfer on ice, addition of 0.5 µg/µl Casp6-C163A, and incubation (37 °C, 5, 10 and 15 min). Reactions were stopped by adding SDS-PAGE sample buffer (62.5 mM Tris pH 6.8, 2% SDS, 0.1 M DTT, 0.01% Bromphenol Blue, 10% glycerol) and heating (5 min, 95 °C). Samples (2 µl) were analysed on 15% SDS-PAGE gels, proteins were stained with Coomassie blue, and gels were de-stained with 10% acetic acid. The intensities of protein bands were quantified from scanned gels using ImageJ. The band intensity of Casp6-C163A without a prodomain was plotted against the time and the Casp6-C163A cleavage rates were calculated from the slopes of linear plots. The % activity of Casp6-WT in the presence of inhibitors was calculated relative to DMSO control.
IC50 values were determined against 20 nM Casp6 active sites in fluorescence-based Casp6 activity assay with 10 µM Ac-VEID-AFC and 1 nM-500 µM inhibitor. IC50 was calculated with GraphPad Prism 5 by a nonlinear regression fit for log inhibitor vs relative Casp6 activity (% DMSO control) using a Hill slope of – 1, and top and bottom constraints of 100 and 0, respectively.

The next data set deals with T2, recombinant active Casp6 (Homo sapiens, UniProt P55212, INS179NQTEKLDTNITEVD).
T2 construct: generating mainly large subunit with a linker (LS-L), small subunit (SS), and a minor amount of large subunit (LS); His (C); made in house; host or cells: E. coli BL21(DE3)pLysS
T2 sequence (P55212 24-193 limits assumed): T1 sequence (P55212 24-193 limits assumed)
T2 sequence (P55212 194-293 limits assumed): T1 sequence (P55212 194-293 limits assumed)
The data set can be described thus: Colorimetric Ac-VEID-pNA cleavage assay. The format is biochemical. Particulars: 200 µM Ac-VEID-pNA, 200 nM Casp6. The protocol:
as §1, §2

Data set [2] concerns the molecule itself. Description: crystal structure; apo, fully processed Casp6 variant; crystals from 100 mM sodium acetate pH 4.6, 2 M sodium chloride, hanging drop vapour diffusion at 22 °C.
Data set [3] concerns the target T3, Casp6-E35K large subunit with linker (LS-L) (human, UniProt P55212 24-193, E35K).
T3 construct: human Caspase-6, large subunit with linker (LS-L) left after complete self-processing at TETD23 and TEVD193; a minor amount is also cut at DVVD179 (LS); rare natural SNP variant E35K; source: E. coli BL21(DE3)pLysS, self-processed from full-length Casp6-E35K, purified
T3 sequence (looked up): T1 sequence (P55212 24-193 limits assumed) with E12K
Described as above. The settings on record: both partners purified.

Changes are numbered by the printed parent chain. Numbers in names are those of the source.

As for `O=C(Cn1cc(/C=C2/C(=O)NC(=O)N(Cc3ccco3)C2=O)c2ccccc21)NCC1CCCO1` (centres unmarked) [Compound S10], in data set [1], the “% Inhibition with 100 µM compound (fluorescence assay)” value (“% Inhibition … (fluorescence assay)” for short) is 59.7 ± 3.8% and the half-inhibitory concentration (IC50) (usually the concentration needed to halve the response being measured) worked out at 30.2 ± 6.8 µM. The “% Inhibition with 100 µM compound (colorimetric assay)” value (from here on “% Inhibition … (colorimetric assay)”) at recombinant active Casp6 is 42.6 ± 3.4%.

For the molecule `Nc1nc2c(s1)C(c1ccc(OCc3cccc(F)c3)cc1)CC(=O)N2` (centres unmarked) [Compound S11], in data set [1], the “% Inhibition … (fluorescence assay)” value is recorded as 30.0 ± 6.0% and the IC50 turned out to be 289 ± 60.9 µM. For the same molecule, the “% Inhibition … (colorimetric assay)” value at recombinant active Casp6 is on record as 56.3 ± 2.3%.

As for `Cc1nn(-c2ccccc2)c2c1C(c1cccc(OCc3ccccc3)c1)C(C#N)=C(N)O2` (centres unmarked) [Compound S13], in data set [1], the “% Inhibition … (fluorescence assay)” value is 33.8 ± 12.1% and the half-maximal inhibitory concentration (IC50) was 159 ± 27.7 µM. Also, on recombinant active Casp6, the “% Inhibition … (colorimetric assay)” value stood at 41.9 ± 8.2%.

B1: Casp6-E35K, fully processed (mature, apo) (complex, human)
chain 1: T1 sequence (P55212 24-193 limits assumed) with E12K
chain 2: T1 sequence (P55212 194-293 limits assumed)
notes: human Caspase-6, large subunit with linker (LS-L) left after complete self-processing at TETD23 and TEVD193; a minor amount is also cut at DVVD179 (LS); rare natural SNP variant E35K; human Caspase-6, small subunit (SS) left after self-processing at TEVD193; One protomer (LS-L plus SS); two protomers form the dimer seen in the crystal; That the His tag sits on the small subunit is surmised from …
Regarding B1, the binding result in data set [2] was “binds”.

B2: Casp6 small subunit (SS) from self-processed Casp6 (domain or fragment, human, UniProt P55212 194-293, looked up)
chain: T1 sequence (P55212 194-293 limits assumed)
notes: human Caspase-6, small subunit (SS) left after self-processing at TEVD193; That the His tag sits on this chain is surmised from the plasmid's name; source: E. coli BL21(DE3)pLysS, self-processed from full-length Casp6 variant, purified
With B2, the binding result in data set [3] is given as “binds”.
